pIC50: −log10 of the molar value.
Test system: IFNγ-Induced NO Production
Assay: Nitric Oxide Suppression Assay (Suppression of IFNγ-Induced NO Production)
Format: cell-based
Details: RAW264.7; RAW 264.7 mouse macrophage cells; 2 hour pre-treatment with compound (3 μM to 0.3 nM, 10 point curve); 20 ng/mL interferon gamma, ~18 hour; Griess detection; n=2-3 in duplicates
Summary of the method: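 Griess-based absorbance read (520–550 nm) of supernatant after RAW 264.7 mouse macrophages received 10-point compound dilutions (3 μM–0.3 nM, DMSO ≤1%) for 2 h, then 20 ng/mL IFNγ for ~18 h at 37 °C. Signal normalised to IFNγ-only peak; IC50 fitted to mean of n=2-3 duplicates.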

SMILES	pIC50
C[C@@H]1C(=O)C(C#N)=C[C@]2(c3ccccc3)c3nn(C(=O)CNC(=O)OC(C)(C)C)cc3CC[C@@H]12 [Example 39, tert-butyl {2-[(5aS,6S,9aR)-8-cyano-6-methyl-7-oxo-9a-phenyl-4,5,5a,6,7,9a-hexahydro-2H-benzo[g]indazol-2-yl]-2-oxoethyl}carbamate]	7.27
C[C@@H]1C(=O)C(C#N)=C[C@]2(c3ccccc3)c3nn(C(=O)Nc4cccnc4)cc3CC[C@@H]12 [Example 48, (5aS,6S,9aR)-8-cyano-6-methyl-7-oxo-9a-phenyl-N-(pyridin-3-yl)-4,5,5a,6,7,9a-hexahydro-2H-benzo[g]indazole-2-carboxamide]	7.40
Cc1nc(-c2cccc(-c3ccc(N)cc3)c2)c2c(n1)[C@@]1(c3ccccc3)C=C(C#N)C(=O)[C@@H](C)[C@@H]1CC2 [Example 118, (6aS,7S,10aR)-4-(4′-aminobiphenyl-3-yl)-2,7-dimethyl-8-oxo-10a-phenyl-5,6,6a,7,8,10a-hexahydrobenzo[h]quinazoline-9-carbonitrile]	8.34
C[C@@H]1C(=O)C(C#N)=C[C@]2(c3ccccc3)c3nn(C)c(-c4ccccc4)c3CC[C@@H]12 (racemic) [Example 2, rac-(5aS,6S,9aR)-2,6-dimethyl-7-oxo-3,9a-diphenyl-4,5,5a,6,7,9a-hexahydro-2H-benzo[g]indazole-8-carbonitrile]	7.77
Cc1nc(-c2ccncc2)c2c(n1)[C@@]1(c3ccccc3)C=C(C#N)C(=O)[C@@H](C)[C@@H]1CC2 [Example 27, (6aS,7S,10aR)-2,7-dimethyl-8-oxo-10a-phenyl-4-(pyridin-4-yl)-5,6,6a,7,8,10a-hexahydrobenzo[h]quinazoline-9-carbonitrile]	8.23
C[C@@H]1C(=O)C(C#N)=C[C@]2(c3ccccc3)c3n[nH]c(-c4ccc(NS(C)(=O)=O)cc4)c3CC[C@@H]12 [Example 112, N-{4-[(5aS,6S,9aR)-8-cyano-6-methyl-7-oxo-9a-phenyl-4,5,5a,6,7,9a-hexahydro-2H-benzo[g]indazol-3-yl]phenyl}methanesulfonamide]	7.18
Cc1nc(Nc2cccnc2)c2c(n1)[C@@]1(c3ccccc3)C=C(C#N)C(=O)[C@@H](C)[C@@H]1CC2 [Example 147, (6aS,7S,10aR)-2,7-dimethyl-8-oxo-10a-phenyl-4-(pyridin-3-ylamino)-5,6,6a,7,8,10a-hexahydrobenzo[h]quinazoline-9-carbonitrile]	7.32
C[C@@H]1C(=O)C(C#N)=C[C@]2(c3ccccc3)c3n[nH]c(-c4cccc(CCCO)c4)c3CC[C@@H]12 [Example 123, (5aS,6S,9aR)-3-[3-(3-hydroxypropyl)phenyl]-6-methyl-7-oxo-9a-phenyl-4,5,5a,6,7,9a-hexahydro-2H-benzo[g]indazole-8-carbonitrile]	8.11
C[C@@H]1C(=O)C(C#N)=C[C@]2(c3ccccc3)c3c(c(-c4cncnc4)nn3C)CC[C@@H]12 [Example 179, (5aS,6S,9aR)-1,6-dimethyl-7-oxo-9a-phenyl-3-(pyrimidin-5-yl)-4,5,5a,6,7,9a-hexahydro-1H-benzo[g]indazole-8-carbonitrile]	8.91
COC(=O)c1cccc([C@]23C=C(C(N)=O)C(=O)[C@@H](C)[C@@H]2CCc2cncnc23)c1 [Example 142, methyl 3-[(6aS,7S,10aR)-9-carbamoyl-7-methyl-8-oxo-6,6a,7,8-tetrahydrobenzo[h]quinazolin-10a(5H)-yl]benzoate]	5.64
COC(=O)c1ccc(-c2ncc3c(n2)[C@@]2(c4cccc(C(=O)OC)c4)C=C(C#N)C(=O)[C@@H](C)[C@@H]2CC3)cc1 [Example 101, methyl 3-[(6aS,7S,10aR)-9-cyano-2-[4-(methoxycarbonyl)phenyl]-7-methyl-8-oxo-6,6a,7,8-tetrahydrobenzo[h]quinazolin-10a(5H)-yl]benzoate]	7.34
C[C@@H]1C(=O)C(C#N)=C[C@]2(c3ccccc3)c3n[nH]cc3CC[C@@H]12 [Example 24, (5aS,6S,9aR)-6-methyl-7-oxo-9a-phenyl-4,5,5a,6,7,9a-hexahydro-2H-benzo[g]indazole-8-carbonitrile]	7.17
C[C@@H]1C(=O)C(C#N)=C[C@]2(Cc3ccccc3)c3nn(C)c(-c4ccccc4)c3CC[C@@H]12 (racemic) [Example 164, rac-(5aS,6S,9aR)-9a-benzyl-2,6-dimethyl-7-oxo-3-phenyl-4,5,5a,6,7,9a-hexahydro-2H-benzo[g]indazole-8-carbonitrile]	7.19
COC(=O)c1ccc([C@]23C=C(C#N)C(=O)[C@@H](C)[C@@H]2CCc2cncnc23)cc1 [Example 64, methyl 4-[(6aS,7S,10aR)-9-cyano-7-methyl-8-oxo-6,6a,7,8-tetrahydrobenzo[h]quinazolin-10a(5H)-yl]benzoate]	7.96
C[C@@H]1C(=O)C(C#N)=C[C@]2(c3ccccc3)c3n[nH]c(-c4cnn(-c5ccc(C#N)cc5)c4)c3CC[C@@H]12 [Example 157, (5aS,6S,9aR)-3-[1-(4-cyanophenyl)-1H-pyrazol-4-yl]-6-methyl-7-oxo-9a-phenyl-4,5,5a,6,7,9a-hexahydro-2H-benzo[g]indazole-8-carbonitrile]	7.35
C[C@@H]1C(=O)C(C#N)=C[C@]2(c3ccccc3)c3nc(N4CCOCC4)ncc3CC[C@@H]12 [Example 19, (6aS,7S,10aR)-7-methyl-2-(morpholin-4-yl)-8-oxo-10a-phenyl-5,6,6a,7,8,10a-hexahydrobenzo[h]quinazoline-9-carbonitrile]	7.44
C[C@@H]1C(=O)C(C#N)=C[C@]2(c3ccccc3)c3n[nH]c(-c4ccc(N)nc4)c3CC[C@@H]12 [Example 106, (5aS,6S,9aR)-3-(6-aminopyridin-3-yl)-6-methyl-7-oxo-9a-phenyl-4,5,5a,6,7,9a-hexahydro-2H-benzo[g]indazole-8-carbonitrile]	8.06
Cc1nc(-c2cncnc2)c2c(n1)[C@@]1(c3ccccc3)C=C(C#N)C(=O)[C@@H](C)[C@@H]1CC2 [Example 22, (6aS,7S,10aR)-2,7-dimethyl-8-oxo-10a-phenyl-4-(pyrimidin-5-yl)-5,6,6a,7,8,10a-hexahydrobenzo[h]quinazoline-9-carbonitrile]	7.50
CC(=O)n1cc(-c2nc(C)nc3c2CC[C@H]2[C@H](C)C(=O)C(C#N)=C[C@]32c2ccccc2)cn1 [Example 76, (6aS,7S,10aR)-4-(1-acetyl-1H-pyrazol-4-yl)-2,7-dimethyl-8-oxo-10a-phenyl-5,6,6a,7,8,10a-hexahydrobenzo[h]quinazoline-9-carbonitrile]	8.72
COC(=O)c1cccc([C@]23C=C(C#N)C(=O)[C@@H](C)[C@@H]2CCc2cnc(-c4ccccc4)nc23)c1 [Example 99, methyl 3-[(6aS,7S,10aR)-9-cyano-7-methyl-8-oxo-2-phenyl-6,6a,7,8-tetrahydrobenzo[h]quinazolin-10a(5H)-yl]benzoate]	7.63
C[C@@H]1C(=O)C(C#N)=C[C@]2(c3ccc(C(=O)N4CCCC4)cc3)c3ncncc3CC[C@@H]12 [Example 73, (6aS,7S,10aR)-7-methyl-8-oxo-10a-[4-(pyrrolidin-1-ylcarbonyl)phenyl]-5,6,6a,7,8,10a-hexahydrobenzo[h]quinazoline-9-carbonitrile]	6.82
Cc1nc(-c2c[nH]c(=O)[nH]c2=O)c2c(n1)[C@@]1(c3ccc(F)cc3)C=C(C#N)C(=O)[C@@H](C)[C@@H]1CC2 [Example 94, (6aS,7S,10aR)-4-(2,4-dioxo-1,2,3,4-tetrahydropyrimidin-5-yl)-10a-(4-fluorophenyl)-2,7-dimethyl-8-oxo-5,6,6a,7,8,10a-hexahydrobenzo[h]quinazoline-9-carbonitrile]	6.19
COc1nc(-c2ccccc2F)nc2c1CC[C@H]1[C@H](C)C(=O)C(C#N)=C[C@]21c1ccccc1 [Example 25, (6aS,7S,10aR)-2-(2-fluorophenyl)-4-methoxy-7-methyl-8-oxo-10a-phenyl-5,6,6a,7,8,10a-hexahydrobenzo[h]quinazoline-9-carbonitrile]	7.42
C[C@@H]1C(=O)C(C#N)=C[C@]2(c3cccc(C(=O)O)c3)c3nc(-c4ccc(C(=O)O)cc4)ncc3CC[C@@H]12 [Example 104, 3-[(6aS,7S,10aR)-2-(4-carboxyphenyl)-9-cyano-7-methyl-8-oxo-6,6a,7,8-tetrahydrobenzo[h]quinazolin-10a(5H)-yl]benzoic acid]	6.03
Cc1nc(-c2ccc(=O)n(C)c2)c2c(n1)[C@@]1(c3ccccc3)C=C(C#N)C(=O)[C@@H](C)[C@@H]1CC2 [Example 44, (6aS,7S,10aR)-2,7-dimethyl-4-(1-methyl-6-oxo-1,6-dihydropyridin-3-yl)-8-oxo-10a-phenyl-5,6,6a,7,8,10a-hexahydrobenzo[h]quinazoline-9-carbonitrile]	7.29
COc1ccc([C@]23C=C(C#N)C(=O)[C@@H](C)[C@@H]2CCc2cncnc23)cc1 [Example 70, (6aS,7S,10aR)-10a-(4-methoxyphenyl)-7-methyl-8-oxo-5,6,6a,7,8,10a-hexahydrobenzo[h]quinazoline-9-carbonitrile]	8.28
C[C@@H]1C(=O)C(C#N)=C[C@]2(c3ccccc3)c3c(cnn3Cc3ccccc3)CC[C@@H]12 (single isomer, unassigned) [Example 57]	7.66
COc1ccc([C@]23C=C(C#N)C(=O)[C@@H](C)[C@@H]2CCc2c[nH]nc23)cc1 [Example 58, (5aS,6S,9aR)-9a-(4-methoxyphenyl)-6-methyl-7-oxo-4,5,5a,6,7,9a-hexahydro-2H-benzo[g]indazole-8-carbonitrile]	7.48
C[C@@H]1C(=O)C(C#N)=C[C@]2(c3ccc(F)cc3)c3nc(-c4cccnc4)ncc3CC[C@@H]12 [Example 51, (6aS,7S,10aR)-10a-(4-fluorophenyl)-7-methyl-8-oxo-2-(pyridin-3-yl)-5,6,6a,7,8,10a-hexahydrobenzo[h]quinazoline-9-carbonitrile]	8.21
